Measurements reported in patent US10590132B2, “Selective estrogen receptor down-regulators” (AstraZeneca AB, priority 2017, dated 2020).

Experiment: Human plasma protein binding (equilibrium dialysis)
Type: in vitro ADME
Settings: dialysis 18 hours

First: COc1ccc(OCCNCCCF)c(C)c1[C@@H]1c2[nH]c3ccccc3c2C[C@@H](C)N1CC(F)(F)F [Example 26, 3-fluoro-N-(2-(4-methoxy-2-methyl-3-((1R,3R)-3-methyl-2-(2,2,2-trifluoroethyl)-2,3,4,9-tetrahydro-1H-pyrido[3,4-b]indol-1-yl)phenoxy)ethyl)propan-1-amine]
Second: COc1cc(F)c(OCCNCCCF)cc1[C@@H]1c2[nH]c3ccccc3c2C[C@@H](C)N1CC(F)(F)F [Example 28, 3-fluoro-N-(2-(2-fluoro-4-methoxy-5-((1R,3R)-3-methyl-2-(2,2,2-trifluoroethyl)-2,3,4,9-tetrahydro-1H-pyrido[3,4-b]indol-1-yl)phenoxy)ethyl)propan-1-amine]
The “Human plasma protein binding (% free)” value of the first is lower: 0.22 % free for the first, 1.2 % free for the second.

Compared with `Cc1c(OCCNCCCF)ccnc1[C@@H]1c2[nH]c3ccccc3c2C[C@@H](C)N1CC(F)(F)CO` [Example 96, 2,2-difluoro-3-((1S,3R)-1-(4-(2-((3-fluoropropyl)amino)ethoxy)-3-methylpyridin-2-yl)-3-methyl-1,3,4,9-tetrahydro-2H-pyrido[3,4-b]indol-2-yl)propan-1-ol], `Cc1c(OCCNCCCF)ncnc1[C@@H]1c2[nH]c3ccccc3c2C[C@@H](C)N1CC(F)(F)CO` [Example 115, 2,2-difluoro-3-((1S,3R)-1-(6-(2-((3-fluoropropyl)amino)ethoxy)-5-methylpyrimidin-4-yl)-3-methyl-1,3,4,9-tetrahydro-2H-pyrido[3,4-b]indol-2-yl)propan-1-ol] is higher in “Human plasma protein binding (% free)” value: 7.1 % free for the first, 11 % free for the second.

First: COc1cc(F)c(NCCNCCCF)cc1[C@@H]1c2[nH]c3ccccc3c2C[C@@H](C)N1CC(F)(F)F [Example 91, N1-(2-fluoro-4-methoxy-5-((1R,3R)-3-methyl-2-(2,2,2-trifluoroethyl)-2,3,4,9-tetrahydro-1H-pyrido[3,4-b]indol-1-yl)phenyl)-N2-(3-fluoropropyl)ethane-1,2-diamine]
Second: COc1ccc(NCCNCCCF)cc1[C@@H]1c2[nH]c3ccccc3c2C[C@@H](C)N1CC(F)(F)F [Example 40, N1-(3-fluoropropyl)-N2-(4-methoxy-3-((1R,3R)-3-methyl-2-(2,2,2-trifluoroethyl)-2,3,4,9-tetrahydro-1H-pyrido[3,4-b]indol-1-yl)phenyl)ethane-1,2-diamine]
The “Human plasma protein binding (% free)” value of the first is higher: 0.93 % free for the first, 0.89 % free for the second.

Going from `C[C@@H]1Cc2c([nH]c3ccccc23)[C@@H](c2cccc(OCCNCCCF)n2)N1CC(F)(F)F` [Example 34, 3-fluoro-N-(2-((6-((1S,3R)-3-methyl-2-(2,2,2-trifluoroethyl)-2,3,4,9-tetrahydro-1H-pyrido[3,4-b]indol-1-yl)pyridin-2-yl)oxy)ethyl)propan-1-amine] to `C[C@@H]1Cc2c([nH]c3ccccc23)[C@@H](c2ccnc(OCCNCCCF)c2)N1CC(F)(F)F` [Example 102, 3-fluoro-N-(2-((4-((1R,3R)-3-methyl-2-(2,2,2-trifluoroethyl)-2,3,4,9-tetrahydro-1H-pyrido[3,4-b]indol-1-yl)pyridin-2-yl)oxy)ethyl)propan-1-amine], the “Human plasma protein binding (% free)” value falls from 2.2 % free to 1.4 % free.

Going from `C[C@@H]1Cc2c([nH]c3ccccc23)[C@@H](c2cc(OCCNCCCF)ccc2Cl)N1CC(F)(F)CO` [Example 44, 3-((1R,3R)-1-(2-chloro-5-(2-((3-fluoropropyl)amino)ethoxy)phenyl)-3-methyl-1,3,4,9-tetrahydro-2H-pyrido[3,4-b]indol-2-yl)-2,2-difluoropropan-1-ol] to `C[C@@H]1Cc2c([nH]c3ccccc23)[C@@H](c2cc(OCCNCCCF)ccc2CO)N1CC(F)(F)F` [Example 70, (4-(2-((3-fluoropropyl)amino)ethoxy)-2-((1R,3R)-3-methyl-2-(2,2,2-trifluoroethyl)-2,3,4,9-tetrahydro-1H-pyrido[3,4-b]indol-1-yl)phenyl)methanol], the “Human plasma protein binding (% free)” value rises from 2.3 % free to 23 % free.

First: C[C@@H]1Cc2c([nH]c3ccccc23)[C@@H](c2c(F)cnc(OCCNCCCF)c2Cl)N1CC(F)(F)CO [Example 111, 3-((1R,3R)-1-(3-chloro-5-fluoro-2-(2-((3-fluoropropyl)amino)ethoxy)pyridin-4-yl)-3-methyl-1,3,4,9-tetrahydro-2H-pyrido[3,4-b]indol-2-yl)-2,2-difluoropropan-1-ol]
Second: C[C@@H]1Cc2c([nH]c3ccccc23)[C@@H](c2nccc(OCCNCCCF)c2Cl)N1CC(F)(F)F [Example 93, N-(2-((3-chloro-2-((1S,3R)-3-methyl-2-(2,2,2-trifluoroethyl)-2,3,4,9-tetrahydro-1H-pyrido[3,4-b]indol-1-yl)pyridin-4-yl)oxy)ethyl)-3-fluoropropan-1-amine]
The “Human plasma protein binding (% free)” value of the first is higher: 1.4 % free for the first, 0.34 % free for the second.

Compared with `Cc1c(OCCNCCC(F)F)ccc(F)c1[C@@H]1c2[nH]c3ccc(F)cc3c2C[C@@H](C)N1C[C@@H](C)C(=O)O` [Example 162, (R)-3-((1R,3R)-1-(3-(2-((3,3-difluoropropyl)amino)ethoxy)-6-fluoro-2-methylphenyl)-6-fluoro-3-methyl-1,3,4,9-tetrahydro-2H-pyrido[3,4-b]indol-2-yl)-2-methylpropanoic Acid], `C[C@@H]1Cc2c([nH]c3ccccc23)[C@@H](c2c(F)ccc(OCCN(C)CCCF)c2C(F)F)N1C[C@H](C)C(=O)O` [Example 148, (S)-3-((1R,3R)-1-(2-(difluoromethyl)-6-fluoro-3-(2-((3-fluoropropyl)(methyl)amino)ethoxy)phenyl)-3-methyl-1,3,4,9-tetrahydro-2H-pyrido[3,4-b]indol-2-yl)-2-methylpropanoic acid] is lower in “Human plasma protein binding (% free)” value: 27 % free for the first, 10 % free for the second.

Going from `C[C@@H]1Cc2c([nH]c3ccccc23)[C@@H](c2c(F)ccc(OCCN(C)CCCF)c2F)N1CC1(F)COC1` [Example 154, N-(2-(2,4-difluoro-3-((1R,3R)-2-((3-fluorooxetan-3-yl)methyl)-3-methyl-2,3,4,9-tetrahydro-1H-pyrido[3,4-b]indol-1-yl)phenoxy)ethyl)-3-fluoro-N-methylpropan-1-amine] to `COc1ccc(OCCNCCCF)c(F)c1[C@@H]1c2[nH]c3ccccc3c2C[C@@H](C)N1CC1(F)COC1` [Example 84, 3-fluoro-N-(2-(2-fluoro-3-((1R,3R)-2-((3-fluorooxetan-3-yl)methyl)-3-methyl-2,3,4,9-tetrahydro-1H-pyrido[3,4-b]indol-1-yl)-4-methoxyphenoxy)ethyl)propan-1-amine], the “Human plasma protein binding (% free)” value rises from 2.7 % free to 6 % free.

First: C[C@@H]1Cc2c([nH]c3ccccc23)[C@@](C)(c2cccc(OCCNCCCF)c2)N1CC(F)(F)F [Example 75, N-(2-(3-((1R,3R)-1,3-dimethyl-2-(2,2,2-trifluoroethyl)-2,3,4,9-tetrahydro-1H-pyrido[3,4-b]indol-1-yl)phenoxy)ethyl)-3-fluoropropan-1-amine]
Second: C[C@@H]1Cc2c([nH]c3ccccc23)[C@@H](c2c(F)c(F)cc(OCCNCCCF)c2F)N1CC(F)(F)F [Example 32, 3-fluoro-N-(2-(2,4,5-trifluoro-3-((1R,3R)-3-methyl-2-(2,2,2-trifluoroethyl)-2,3,4,9-tetrahydro-1H-pyrido[3,4-b]indol-1-yl)phenoxy)ethyl)propan-1-amine]
The “Human plasma protein binding (% free)” value of the first is lower: 0.08 % free for the first, 0.52 % free for the second.

Compared with `COc1ccc(OCCNCCCF)c(F)c1[C@@H]1c2[nH]c3ccccc3c2C[C@@H](C)N1CC(F)F` [Example 82, N-(2-(3-((1R,3R)-2-(2,2-difluoroethyl)-3-methyl-2,3,4,9-tetrahydro-1H-pyrido[3,4-b]indol-1-yl)-2-fluoro-4-methoxyphenoxy)ethyl)-3-fluoropropan-1-amine], `C[C@@H]1Cc2c([nH]c3ccccc23)[C@@H](c2c(F)ccc(OCCNCCCF)c2F)N1CC(F)F` [Example 51, N-(2-(3-((1R,3R)-2-(2,2-difluoroethyl)-3-methyl-2,3,4,9-tetrahydro-1H-pyrido[3,4-b]indol-1-yl)-2,4-difluorophenoxy)ethyl)-3-fluoropropan-1-amine] is higher in “Human plasma protein binding (% free)” value: 1.9 % free for the first, 2.3 % free for the second.

Going from `COc1ncc(NCCNCCCF)cc1[C@@H]1c2[nH]c3ccccc3c2C[C@@H](C)N1CC(F)(F)F` [Example 41, N1-(3-fluoropropyl)-N2-(6-methoxy-5-((1R,3R)-3-methyl-2-(2,2,2-trifluoroethyl)-2,3,4,9-tetrahydro-1H-pyrido[3,4-b]indol-1-yl)pyridin-3-yl)ethane-1,2-diamine] to `COc1ccc(NCCNCCCF)c(F)c1[C@@H]1c2[nH]c3ccccc3c2C[C@@H](C)N1CC(F)(F)F` [Example 90, N1-(2-fluoro-4-methoxy-3-((1R,3R)-3-methyl-2-(2,2,2-trifluoroethyl)-2,3,4,9-tetrahydro-1H-pyrido[3,4-b]indol-1-yl)phenyl)-N2-(3-fluoropropyl)ethane-1,2-diamine], the “Human plasma protein binding (% free)” value falls from 1.8 % free to 1.1 % free.

First: C[C@@H]1Cc2c([nH]c3ccc(F)cc23)[C@@H](c2c(F)cnc(OCCNCCCF)c2F)N1CC1(F)CC1 [Example 109, N-(2-((3,5-difluoro-4-((1R,3R)-6-fluoro-2-((1-fluorocyclopropyl)methyl)-3-methyl-2,3,4,9-tetrahydro-1H-pyrido[3,4-b]indol-1-yl)pyridin-2-yl)oxy)ethyl)-3-fluoropropan-1-amine]
Second: C[C@@H]1Cc2c([nH]c3cccc(F)c23)[C@@H](c2c(F)ccc(OCCNCCCF)c2F)N1CC(F)(F)CO [Example 62, 3-((1R,3R)-1-(2,6-difluoro-3-(2-((3-fluoropropyl)amino)ethoxy)phenyl)-5-fluoro-3-methyl-1,3,4,9-tetrahydro-2H-pyrido[3,4-b]indol-2-yl)-2,2-difluoropropan-1-ol]
The “Human plasma protein binding (% free)” value of the first is higher: 1.9 % free for the first, 1.2 % free for the second.

In the case of `Cc1c([C@@H]2c3[nH]c4ccccc4c3C[C@@H](C)N2C[C@H](C)C(=O)O)ccnc1OCCNCCCF` [Example 132, (S)-3-((1R,3R)-1-(2-2-((3-(fluoropropyl)amino)ethoxy)-3-methylpyridin-4-yl)-3-methyl-1,3,4,9-tetrahydro-2H-pyrido[3,4-b]indol-2-yl)-2-methylpropanoic acid], the “Human plasma protein binding (% free)” value is reported as 34 % free.
